Structures are written as SMILES.

This assay has as its target T1, Pin1 (Homo sapiens, UniProt Q13526).
T1 construct: PTPI-PIN1 directs the synthesis of the native full length Pin1 protein; (His)6 (N); made in house; host or cells: E. coli BL21
Put plainly: PPIase assay: inhibition of Pin1 PPIase activity. The assay is classed as biochemical. The conditions noted are these: even at 25 μM. The method, then: PPIase activity of the purified recombinant proteins was assayed using the procedure of Heitman et al. (Methods, 5:176, 1993) with the following exceptions. The reaction was carried out 5° C. and chymotrypsin was added just before the peptide substrate (N-Succ-Ala-Pro-Phe-p-nitroanilide, Sigma). The cis to trans isomerization was monitored every 6 seconds by a change in the absorbance at 395 nm using DMS 2000 UV and Visible Spectrophotometer (Varian). FKBP, cyclosporin A and FK520, a FK506 derivative, were gifts of D. Schultz and C. Zuker; University of California, San Diego.
Because of the strong sequence in similarity between Pin1 and the third PPIase family, Pin was tested to determine if Pin could catalyze the cis/trans isomerization of peptidyl-prolyl peptide bonds in vitro, a characteristic of PPIase. Pin1 was expressed in bacteria with an N-terminal (His)6 tag and was purified from bacteria using a […] agarose column. […] The isomerase activity was measured as described in Example 1. The cis to trans isomerization was monitored every 6 seconds by a change in the absorbance at 395 nm, with the finally stable absorbance of each sample being set at 1.0. Different concentrations of Pin1 were used as indicated, with the recombinant FK506-binding protein (FKBP) PPIase being used as a positive control. The control sample contained all the ingredients except the PPIase. […]

T1 sequence (Q13526 whole entry): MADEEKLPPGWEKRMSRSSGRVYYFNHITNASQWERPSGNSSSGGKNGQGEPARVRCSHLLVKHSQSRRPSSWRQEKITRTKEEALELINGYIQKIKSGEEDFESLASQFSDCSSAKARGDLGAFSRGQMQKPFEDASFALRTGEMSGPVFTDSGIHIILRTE

Turning to `CC[C@@H]1/C=C(\C)C[C@H](C)C[C@H](OC)[C@H]2O[C@@](O)(C(=O)C(=O)N3CCCC[C@H]3C(=O)O[C@H](/C(C)=C/[C@@H]3CC[C@@H](O)[C@H](OC)C3)[C@H](C)[C@@H](O)CC1=O)[C@H](C)C[C@@H]2OC` [FK520], the “inhibition of the PPIase activity of Pin1” value was “not inhibited”.

For the origin of these results see patent US7125955B2, “NIMA interacting proteins” (The Salk Institute for Biological Studies, priority 1995, dated 2006).
